Data reported in patent US12077503B2, “Substituted cyclic amides and their use as herbicides” (FMC CORPORATION, priority 2015, dated 2024).

How the values were obtained:
Type in all cases: in vivo
[1] = tested on: ivy-leaved morning glory (Ipomoea hederacea); test: Test G Pre-Emergence Protocol; conditions: Ipomoea, pre-emergence, 312 h, evaluated after 13 days; for pest or weed control at 15.625 g/ha: 15.625 g ai/ha, read-out: Morning-glory, Ivy-leaved damage rating (100=total damage to plant; 0=no damage to plant); for pest or weed control at 62.5 g/ha: 62.5 g ai/ha, 100=total damage to plant, 0=no damage to plant, read-out: plant damage rating, Morningglory, Ivy-leaved; for pest or weed control at 250 g/ha: 250 g ai/ha, read-out: Morningglory, Ivy-leaved damage rating (100=total damage to plant; 0=no damage to plant)
In short: (§1)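 Spraying took place one day after sowing, at 15.625, 62.5 or 250 g/ha, using an acetone/water (50:50) spray solution containing 0.5% Tween 20. Plants were kept under glasshouse conditions (24/16 °C, 14 h light, 65% humidity, watered twice daily), and injury was rated 0–100 at day 13.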

[2] = tested on: corn (Zea mays); test: Test G Pre-Emergence Protocol; conditions: Zea mays, pre-emergence, 312 h, evaluated after 13 days; for plant injury at 15.625 g/ha: 15.625 g ai/ha; for plant injury at 15.625 g/ha / plant injury at 250 g/ha: read-out: Corn damage rating (100=total damage to plant; 0=no damage to plant); for plant injury at 62.5 g/ha: 62.5 g ai/ha, 100=total damage to plant, 0=no damage to plant, read-out: plant damage rating, Corn; for plant injury at 250 g/ha: 250 g ai/ha
In short: as §1

[3] = tested on: redroot pigweed (Amaranthus retroflexus); test: Test G Pre-Emergence Protocol; conditions: Amaranthus retroflexus, pre-emergence, 312 h, evaluated after 13 days; for pest or weed control at 15.625 g/ha: 15.625 g ai/ha; for pest or weed control at 15.625 g/ha / pest or weed control at 250 g/ha: read-out: Pigweed, Redroot damage rating (100=total damage to plant; 0=no damage to plant); for pest or weed control at 62.5 g/ha: 62.5 g ai/ha, 100=total damage to plant, 0=no damage to plant, read-out: plant damage rating, Pigweed, Redroot; for pest or weed control at 250 g/ha: 250 g ai/ha
In short: as §1

[4] = tested on: velvetleaf (Abutilon theophrasti); test: Test G Pre-Emergence Protocol; conditions: Abutilon theophrasti, pre-emergence, 312 h, evaluated after 13 days; for pest or weed control at 15.625 g/ha: 15.625 g ai/ha; for pest or weed control at 15.625 g/ha / pest or weed control at 250 g/ha: read-out: Velvetleaf damage rating (100=total damage to plant; 0=no damage to plant); for pest or weed control at 62.5 g/ha: 62.5 g ai/ha, 100=total damage to plant, 0=no damage to plant, read-out: plant damage rating, Velvetleaf; for pest or weed control at 250 g/ha: 250 g ai/ha
In short: as §1

[5] = tested on: barnyardgrass (Echinochloa crus-galli); test: Test G Pre-Emergence Protocol; conditions: Echinochloa crus-galli, pre-emergence, 312 h, evaluated after 13 days; for pest or weed control at 15.625 g/ha: 15.625 g ai/ha, read-out: Barnyard grass damage rating (100=total damage to plant; 0=no damage to plant); for pest or weed control at 62.5 g/ha: 62.5 g ai/ha, 100=total damage to plant, 0=no damage to plant, read-out: plant damage rating, Barnyardgrass; for pest or weed control at 250 g/ha: 250 g ai/ha, read-out: Barnyardgrass damage rating (100=total damage to plant; 0=no damage to plant)
In short: as §1

[6] = tested on: giant foxtail (Setaria faberi); test: Test G Pre-Emergence Protocol; conditions: Setaria faberi, pre-emergence, 312 h, evaluated after 13 days; for pest or weed control at 15.625 g/ha: 15.625 g ai/ha; for pest or weed control at 15.625 g/ha / pest or weed control at 250 g/ha: read-out: Foxtail, Giant damage rating (100=total damage to plant; 0=no damage to plant); for pest or weed control at 62.5 g/ha: 62.5 g ai/ha, 100=total damage to plant, 0=no damage to plant, read-out: plant damage rating, Foxtail, Giant; for pest or weed control at 250 g/ha: 250 g ai/ha
In short: as §1

[7] = tested on: ivy-leaved morning glory (Ipomoea hederacea); test: Test G Post-Emergence Protocol; conditions: Ipomoea, post-emergence, 312 h; for pest or weed control at 15.625 g/ha: 15.625 g ai/ha, evaluated after 13 days (100=total damage to plant; 0=no damage to plant), read-out: Morningglory, Ivy-leaved damage rating; for pest or weed control at 62.5 g/ha: 62.5 g ai/ha, read-out: Morningglory, Ivy-leaved damage rating (100=total damage to plant; 0=no damage to plant); for pest or weed control at 62.5 g/ha / pest or weed control at 250 g/ha: evaluated after 13 days; for pest or weed control at 250 g/ha: 250 g ai/ha, read-out: damage to plant, Morningglory, Ivy-leaved (100=total damage to plant; 0=no damage to plant)
In short: (§2)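 A glasshouse post-emergence test: 8-day-old plants sprayed at 15.625, 62.5 or 250 g/ha, then grown at 24/16 °C day/night with 14 h light and 65% humidity. Damage rated 13 days later, 0–100.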

[8] = tested on: corn (Zea mays); test: Test G Post-Emergence Protocol; conditions: Zea mays, post-emergence, 312 h; for plant injury at 15.625 g/ha: 15.625 g ai/ha, evaluated after 13 days (100=total damage to plant; 0=no damage to plant), read-out: Corn damage rating; for plant injury at 62.5 g/ha: 62.5 g ai/ha, read-out: Corn damage rating (100=total damage to plant; 0=no damage to plant); for plant injury at 62.5 g/ha / plant injury at 250 g/ha: evaluated after 13 days; for plant injury at 250 g/ha: 250 g ai/ha, read-out: damage to plant, Corn (100=total damage to plant; 0=no damage to plant)
In short: as §2

[9] = tested on: redroot pigweed (Amaranthus retroflexus); test: Test G Post-Emergence Protocol; conditions: Amaranthus retroflexus, post-emergence, 312 h; for pest or weed control at 15.625 g/ha: 15.625 g ai/ha, evaluated after 13 days (100=total damage to plant; 0=no damage to plant), read-out: Pigweed, Redroot damage rating; for pest or weed control at 62.5 g/ha: 62.5 g ai/ha, read-out: Pigweed, Redroot damage rating (100=total damage to plant; 0=no damage to plant); for pest or weed control at 62.5 g/ha / pest or weed control at 250 g/ha: evaluated after 13 days; for pest or weed control at 250 g/ha: 250 g ai/ha, read-out: damage to plant, Pigweed, Redroot (100=total damage to plant; 0=no damage to plant)
In short: as §2

[10] = tested on: velvetleaf (Abutilon theophrasti); test: Test G Post-Emergence Protocol; conditions: Abutilon theophrasti, post-emergence, 312 h; for pest or weed control at 15.625 g/ha: 15.625 g ai/ha, evaluated after 13 days (100=total damage to plant; 0=no damage to plant), read-out: Velvetleaf damage rating; for pest or weed control at 62.5 g/ha: 62.5 g ai/ha, read-out: Velvetleaf damage rating (100=total damage to plant; 0=no damage to plant); for pest or weed control at 62.5 g/ha / pest or weed control at 250 g/ha: evaluated after 13 days; for pest or weed control at 250 g/ha: 250 g ai/ha, read-out: damage to plant, Velvetleaf (100=total damage to plant; 0=no damage to plant)
In short: as §2

[11] = tested on: barnyardgrass (Echinochloa crus-galli); test: Test G Post-Emergence Protocol; conditions: Echinochloa crus-galli, post-emergence, 312 h; for pest or weed control at 15.625 g/ha: 15.625 g ai/ha, evaluated after 13 days (100=total damage to plant; 0=no damage to plant), read-out: Barnyardgrass damage rating; for pest or weed control at 62.5 g/ha: 62.5 g ai/ha, read-out: Barnyardgrass damage rating (100=total damage to plant; 0=no damage to plant); for pest or weed control at 62.5 g/ha / pest or weed control at 250 g/ha: evaluated after 13 days; for pest or weed control at 250 g/ha: 250 g ai/ha, read-out: damage to plant, Barnyardgrass (100=total damage to plant; 0=no damage to plant)
In short: as §2

[12] = tested on: giant foxtail (Setaria faberi); test: Test G Post-Emergence Protocol; conditions: Setaria faberi, post-emergence, 312 h; for pest or weed control at 15.625 g/ha: 15.625 g ai/ha, evaluated after 13 days (100=total damage to plant; 0=no damage to plant), read-out: Foxtail, Giant damage rating; for pest or weed control at 62.5 g/ha: 62.5 g ai/ha, read-out: Foxtail, Giant damage rating (100=total damage to plant; 0=no damage to plant); for pest or weed control at 62.5 g/ha / pest or weed control at 250 g/ha: evaluated after 13 days; for pest or weed control at 250 g/ha: 250 g ai/ha, read-out: damage to plant, Foxtail, Giant (100=total damage to plant; 0=no damage to plant)
In short: as §2

Row | Structure (SMILES) | pest or weed control at 15.625 g/ha [1] | pest or weed control at 62.5 g/ha [1] | pest or weed control at 250 g/ha [1] | plant injury at 15.625 g/ha [2] | plant injury at 62.5 g/ha [2] | plant injury at 250 g/ha [2] | pest or weed control at 15.625 g/ha [3] | pest or weed control at 62.5 g/ha [3] | pest or weed control at 250 g/ha [3] | pest or weed control at 15.625 g/ha [4] | pest or weed control at 62.5 g/ha [4] | pest or weed control at 250 g/ha [4] | pest or weed control at 15.625 g/ha [5] | pest or weed control at 62.5 g/ha [5] | pest or weed control at 250 g/ha [5] | pest or weed control at 15.625 g/ha [6] | pest or weed control at 62.5 g/ha [6] | pest or weed control at 250 g/ha [6] | pest or weed control at 15.625 g/ha [7] | pest or weed control at 62.5 g/ha [7] | also measured
1 | CN1C[C@@H](c2ccc(C(F)(F)F)cc2)[C@H](C(=O)Nc2cccc(F)c2C#N)C1=O (racemic) [Compound 1637] | 0% | 0% | 0% | 0% | 0% | 30% | 20% | 50% | 60% | 0% | 0% | 0% | 20% | 30% | 80% | 60% | 90% | 90% | 0% | 20% | pest or weed control at 250 g/ha [7]: 30%; plant injury at 15.625 g/ha [8]: 0%; plant injury at 62.5 g/ha [8]: 0%; plant injury at 250 g/ha [8]: 10%; pest or weed control at 15.625 g/ha [9]: 40%; pest or weed control at 62.5 g/ha [9]: 70%; pest or weed control at 250 g/ha [9]: 70%; pest or weed control at 15.625 g/ha [10]: 0%; pest or weed control at 62.5 g/ha [10]: 10%; pest or weed control at 250 g/ha [10]: 30%; pest or weed control at 15.625 g/ha [11]: 20%; pest or weed control at 62.5 g/ha [11]: 70%; pest or weed control at 250 g/ha [11]: 70%; pest or weed control at 15.625 g/ha [12]: 60%; pest or weed control at 62.5 g/ha [12]: 80%; pest or weed control at 250 g/ha [12]: 80%
2 | CN1C[C@H](c2ccc(C(F)(F)F)cc2)[C@@H](C(=O)NC2=NOC(C)(C)C2)C1=O (racemic) [Compound 1427] | 0% | 0% | 0% | 0% | 0% | 0% | 0% | 0% | 0% | 0% | 0% | 0% | 0% | 0% | 0% | 0% | 0% | 0% | 0% | 0% | pest or weed control at 250 g/ha [7]: 0%; plant injury at 15.625 g/ha [8]: 0%; plant injury at 62.5 g/ha [8]: 0%; plant injury at 250 g/ha [8]: 0%; pest or weed control at 15.625 g/ha [9]: 0%; pest or weed control at 62.5 g/ha [9]: 0%; pest or weed control at 250 g/ha [9]: 0%; pest or weed control at 15.625 g/ha [10]: 0%; pest or weed control at 62.5 g/ha [10]: 0%; pest or weed control at 250 g/ha [10]: 0%; pest or weed control at 15.625 g/ha [11]: 0%; pest or weed control at 62.5 g/ha [11]: 0%; pest or weed control at 250 g/ha [11]: 0%; pest or weed control at 15.625 g/ha [12]: 0%; pest or weed control at 62.5 g/ha [12]: 0%; pest or weed control at 250 g/ha [12]: 0%
